Test results as given in US9127018B2, “Solid forms of ortataxel” (Indena S.p.A., priority 2008, dated 2015).

Assay: physical and chemical stability of the solid form
Assay type: physicochemical
Details: solid form prepared with traces of an organic acid (citric acid); storage conditions not given

chemical and physical stability: at least 36 months
Compound: CC(=O)O[C@H]1C(=O)[C@@]2(C)[C@H]([C@H](OC(=O)c3ccccc3)[C@]34OC(=O)O[C@H]3[C@H](OC(=O)[C@H](O)[C@H](CC(C)C)NC(=O)OC(C)(C)C)C(C)=C1C4(C)C)[C@]1(OC(C)=O)CO[C@@H]1C[C@@H]2O [Form A, 13-(N-Boc-β-isobutylserinyl)-14-β-hydroxybaccatin III 1, 14-carbonate]
